Measurements: patent US11491135B2 (priority 2019, dated 2022)
Where two headings read alike, the source gives them in different places.

Assays:
[1] = system: Clostridium perfringens ATCC13124; format: cell-based; settings: 0.7% BHIA plates, anaerobic 37° C., 48 h
[2] = system: Clostridium perfringens; format: cell-based; settings: 4, 8, 16 and 32 μg/ml, 30° C., 5 days, crystal violet absorbance at 570 nm
[3] = system: Clostridium perfringens ATCC13124; format: in vivo, Arbor Acre broiler chickens; settings: 25 mg/kg orally every 12 h, 5 days

## COc1c(O)cc2occ(-c3ccc(O)cc3)c(=O)c2c1O [tectorigenin]
[1]; 8 μg/ml tectorigenin
  gliding motility of Clostridium perfringens on BHIA: significantly inhibit
[1]; 32 μg/ml tectorigenin
  gliding motility of Clostridium perfringens on BHIA: significantly inhibit
[2]
  biofilm formation of Clostridium perfringens: effectively inhibit
[3]
  daily weight gain of broiler chickens, treatment group vs infected group: significantly higher than that of the infected group
  histopathological injury of small intestine (HE staining): significantly alleviated
[3]; chickens sacrificed at 21-day-old
  degree of pathological changes of the necrotic enteritis in the intestinal tract (intestinal lesion scoring, 0-6): significantly reduced
